Patent publication US8637501B2, “Azinone-substituted azepino[b]indole and pyrido-pyrrolo-azepine MCH-1 antagonists, methods of making, and use thereof” (Albany Molecular Research, Inc., priority 2009, dated 2014)
Structures can show the parent of a compound that is named as a salt.

Molecular target: human MCH-1 receptor (Homo sapiens (Human), UniProt Q99705)
Assay: Binding Assay for Human Melanin-Concentrating Hormone (MCH-1) Receptor
Details: radioligand displacement, membranes from CHO-K1 cells expressing human MCH-1 receptor; Ki from IC50 by Cheng Prusoff equation; read-out: MCH1 Ki
Experimental: Binding Assay for Human Melanin-Concentrating Hormone (MCH-1) Receptor
Evaluation of the affinity of compounds for the human MCH-1 receptor was accomplished using 4-(3,4,5-tritritiumbenzyloxy)-1-(1-(2-(pyrrolidin-1-yl)ethyl)-1H-indazol-5-yl)pyridin-2(1H)-one and membranes prepared from stable CHO-K1 cells expressing the human MCH-1 receptor obtained from Euroscreen (Batch 1138). Cell membrane homogenates (8.92 μg protein) were incubated for 60 min at 25° C. with 1.4 nM of the [^3H]-labeled compound in the absence or presence of the test compound in 50 mM Tris-HCl buffer, pH 7.4. Nonspecific binding was determined in the presence of 50 μM 1-(5-(4-cyanophenyl)bicyclo[3.1.0]hexan-2-yl)-3-(4-fluoro-3-(trifluoromethyl)phenyl)-1-(3-(4-methylpiperazin-1-yl)propyl)urea. Following incubation, the samples were filtered rapidly under vacuum through Skatron 11731 filters, pre-soaked in 0.5% polyethylenimine, and washed with ice-cold 50 mM Tris-HCl buffer, pH 7.4, (wash setting 9,9,0) using a Skatron cell harvester. The filters were counted for radioactivity in a liquid scintillation counter (Tri-Carb 2100TR, Packard) using a scintillation cocktail (Ultima Gold MV, Perkin Elmer).
The results are expressed as a percent inhibition of the control radioligand specific binding. The IC50 value (concentration causing a half-maximal inhibition of control specific binding) and Hill coefficient (nH) were determined by non-linear regression analysis of the competition curve using Hill equation curve fitting. The inhibition constant (Ki) was calculated from the Cheng Prusoff equation: (Ki=IC50/(1+(L/KD)), where L=concentration of radioligand in the assay, and KD=affinity of the radioligand for the receptor.

Chain of human MCH-1 receptor (Q99705 whole entry): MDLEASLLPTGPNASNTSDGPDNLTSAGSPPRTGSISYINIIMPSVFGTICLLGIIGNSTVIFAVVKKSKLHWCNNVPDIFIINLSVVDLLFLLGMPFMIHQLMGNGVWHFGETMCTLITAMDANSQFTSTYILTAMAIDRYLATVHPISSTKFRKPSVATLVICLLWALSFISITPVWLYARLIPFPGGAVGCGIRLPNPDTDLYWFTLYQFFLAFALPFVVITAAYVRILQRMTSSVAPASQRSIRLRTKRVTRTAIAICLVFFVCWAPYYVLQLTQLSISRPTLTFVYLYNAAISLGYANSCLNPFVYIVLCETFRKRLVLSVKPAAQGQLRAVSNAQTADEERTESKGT

In order of rising Ki:
1. CCN1CCc2c(n(C)c3nc(-n4ccc(OCc5ccccc5)cc4=O)ccc23)CC1 [Example 87, 4-(Benzyloxy)-1-(7-ethyl-10-methyl-5,6,7,8,9,10-hexahydropyrido[3′,2′:4,5]pyrrolo[2,3-d]azepin-2-yl)pyridin-2(1H)-one hydrochloride]  6.9 nM
2. Cl.Cn1c2c(c3ccc(-n4ccc(OCc5ccc(F)cn5)cc4=O)cc31)CCNCC2 [Example 40, 4-((5-Fluoropyridin-2-yl)methoxy-1-(6-methyl-1,2,3,4,5,6-hexahydroazepino[4,5-b]indol-8-yl)pyridin-2(1H)-one hydrochloride]  7.2 nM
3. Cn1c2c(c3ccc(-n4ccc(OCc5ccc(F)cc5)cc4=O)cc31)CCNCC2 [Example 57, 4-(4-Fluorobenzyloxy)-1-(6-methyl-1,2,3,4,5,6-hexahydroazepino[4,5-b]indol-8-yl)pyridin-2(1H)-one hydrochloride]  7.3 nM
4. Cn1c2c(c3ccc(-n4ccc(OCc5ccc(Cl)cn5)cc4=O)cc31)CCNCC2 [Example 50, 4-((5-Chloropyridin-2-yl)methoxy)-1-(6-methyl-1,2,3,4,5,6-hexahydroazepino[4,5-b]indol-8-yl)pyridin-2(1H)-one hydrochloride]  7.4 nM
5. Cn1c2c(c3ccc(-n4ccc(OCc5ccc(F)cc5F)cc4=O)cc31)CCNCC2 [Example 52, 4-(2,4-Difluorobenzyloxy)-1-(6-methyl-1,2,3,4,5,6-hexahydroazepino[4,5-b]indol-8-yl)pyridin-2(1H)-one hydrochloride]  7.8 nM
6. CN1CCCc2c(c3ccc(-n4ccc(OCc5ccc(C(F)(F)F)nc5)cc4=O)cc3n2C)C1 [Example 71, 1-(2,6-Dimethyl-1,2,3,4,5,6-hexahydroazepino[4,3-b]indol-8-yl)-4-((6-(trifluoromethyl)pyridin-3-yl)methoxy)pyridin-2(1H)-one hydrochloride]  8.5 nM
7. CN1CCc2c(n(C)c3nc(-n4ccc(OCc5ccccc5)cc4=O)ccc23)CC1 [Example 88, 4-(Benzyloxy)-1-(7,10-dimethyl-5,6,7,8,9,10-hexahydropyrido[3′,2′:4,5]pyrrolo[2,3-d]azepin-2-yl)pyridin-2(1H)-one hydrochloride]  8.7 nM
8. CN1CCCc2c(c3ccc(-n4ccc(OCc5ccc(F)cn5)cc4=O)cc3n2C)C1 [Example 70, 1-(2,6-Dimethyl-1,2,3,4,5,6-hexahydroazepino[4,3-b]indol-8-yl)-4-((5-fluoropyridin-2-yl)methoxy)pyridin-2(1H)-one hydrochloride]  8.8 nM
9. Cn1c2c(c3ccc(-n4ccc(OCc5ccccc5)cc4=O)cc31)CCNCC2 [Example 43, 4-(Benzyloxy)-1-(6-methyl-1,2,3,4,5,6-hexahydroazepino[4,5-b]indol-8-yl)pyridin-2(1H)-one hydrochloride]  8.9 nM
10. CCN1CCCc2c(c3ccc(-n4ccc(OCc5ccc(F)cn5)cc4=O)cc3n2C)C1 [Example 73, 1-(2-Ethyl-6-methyl-1,2,3,4,5,6-hexahydroazepino[4,3-b]indol-8-yl)-4-((5-fluoropyridin-2-yl)methoxy)pyridin-2(1H)-one hydrochloride]  9.4 nM
11. Cl.Cn1c2c(c3ccc(-n4ccc(-c5ccc(C(F)(F)F)cc5)cc4=O)cc31)CCNCC2 [Example 41, 1-(6-Methyl-1,2,3,4,5,6-hexahydroazepino[4,5-b]indol-8-yl)-4(4-trifluoromethyl)phenyl)pyridin-2(1H)-one hydrochloride]  10 nM
12. Cn1c2c(c3ccc(-n4ccc(OCc5ccc(Cl)cc5Cl)cc4=O)cc31)CNCCC2 [Example 65, 4-(2,4-Dichlorobenzyloxy)-1-(6-methyl-1,2,3,4,5,6-hexahydroazepino[4,3-b]indol-8-yl)pyridin-2(1H)-one hydrochloride]  11 nM
13. Cn1c2c(c3ccc(-n4ccc(OCc5ccc(Cl)cc5F)cc4=O)nc31)CCNCC2 [Example 84, 4-(4-Chloro-2-fluorobenzyloxy)-1-(10-methyl-5,6,7,8,9,10-hexahydropyrido[3′,2′:4,5]pyrrolo[2,3-d]azepin-2-yl)pyridin-2(1H)-one hydrochloride]  11 nM
14. Cn1c2c(c3ccc(-n4ccc(OCc5ccc(Cl)cn5)cc4=O)nc31)CCNCC2 [Example 85, 4-((5-Chloropyridin-2-yl)methoxy)-1-(10-methyl-5,6,7,8,9,10-hexahydropyrido[3′,2′:4,5]pyrrolo[2,3-d]azepin-2-yl)pyridin-2(1H)-one hydrochloride]  11 nM
15. CN1CCc2c(n(C)c3cc(-n4ccc(OCc5ccccc5)cc4=O)ccc23)CC1 [Example 44, 4-(benzyloxy)-1-(3,6-dimethyl-1,2,3,4,5,6-hexahydroazepino[4,5-b]indol-8-yl)pyridin-2(1H)-one hydrochloride]  11.6 nM
16. Cn1c2c(c3ccc(-n4ccc(OCc5ccc(Cl)cc5F)cc4=O)cc31)CCNCC2 [Example 55, 4-(4-Chloro-2-fluorobenzyloxy)-1-(6-methyl-1,2,3,4,5,6-hexahydroazepino[4,5-b]indol-8-yl)pyridin-2(1H)-one hydrochloride]  12 nM
17. CN1CCCc2c(c3ccc(-n4ccc(-c5ccc(C(F)(F)F)nn5)cc4=O)cc3n2C)C1 [Example 69, 1-(2,6-Dimethyl-1,2,3,4,5,6-hexahydroazepino[4,3-b]indol-8-yl)-4-(6-(trifluoromethyl)pyridazin-3-yl)pyridin-2(1H)-one hydrochloride]  12 nM
18. Cn1c2c(c3ccc(N4CCN(CCc5ccc(Cl)cc5)CC4=O)cc31)CCNCC2 [Example 53, 4-(4-Chlorophenethyl)-1-(6-methyl-1,2,3,4,5,6-hexahydroazepino[4,5-b]indol-8-yl)piperazin-2-one dihydrochloride]  13 nM
19. Cn1c2c(c3ccc(-n4ccc(OCc5ccc(F)cc5F)cc4=O)nc31)CCNCC2 [Example 83, 4-(2,4-Difluorobenzyloxy)-1-(10-methyl-5,6,7,8,9,10-hexahydropyrido[3′,2′:4,5]pyrrolo[2,3-d]azepin-2-yl)pyridin-2(1H)-one hydrochloride]  13 nM
20. Cn1c2c(c3ccc(-n4ccc(OCc5ccc(F)cn5)cc4=O)nc31)CNCCC2 [Example 91, 4-((5-Fluoropyridin-2-yl)methoxy)-1-(10-methyl-5,6,7,8,9,10-hexahydropyrido[3′,2′:4,5]pyrrolo[3,2-c]azepin-2-yl)pyridin-2(1H)-one hydrochloride]  15 nM
21. Cn1c2c(c3ccc(-n4ccc(OCc5ccccc5)cc4=O)nc31)CCN(C1CCC1)CC2 [Example 86, 4-(Benzyloxy)-1-(7-cyclobutyl-10-methyl-5,6,7,8,9,10-hexahydropyrido[3′,2′:4,5]pyrrolo[2,3-d]azepin-2-yl)pyridin-2(1H)-one hydrochloride]  16 nM
22. Cn1c2c(c3ccc(-n4ccc(-c5ccc(C(F)(F)F)cc5)nc4=O)cc31)CCNCC2 [Example 49, 1-(6-Methyl-1,2,3,4,5,6-hexahydroazepino[4,5-b]indol-8-yl)-4-(4-(trifluoromethyl)phenyl)pyrimidin-2(1H)-one hydrochloride]  17 nM
23. CC(C)N1CCc2[nH]c3cc(-n4ccc(OCc5ccc(F)cn5)cc4=O)ccc3c2CC1 [Example 42, 4-((5-Fluoropyridin-2-yl)methoxy)-1-(3-isopropyl-1,2,3,4,5,6-hexahydroazepino[4,5-b]indol-8-yl)-pyridin-2(1H)-one hydrochloride]  17.8 nM
24. Cn1c2c(c3ccc(-n4ncc(OCc5ccc(C(F)(F)F)nc5)cc4=O)cc31)CNCCC2 [Example 60, 2-(6-Methyl-1,2,3,4,5,6-hexahydroazepino[4,3-b]indol-8-yl)-5-((6-(trifluoromethyl)pyridin-3-yl)methoxy)pyridazin-3(2H)-one hydrochloride]  21 nM
25. Cn1c2c(c3ccc(-n4ccc(OCc5ccc(Cl)cc5Cl)cc4=O)cc31)CCNCC2 [Example 51, 4-(2,4-Dichlorobenzyloxy)-1-(6-methyl-1,2,3,4,5,6-hexahydroazepino[4,5-b]indol-8-yl)pyridin-2(1H)-one]  24 nM
26. Cc1ccc(COc2ccn(-c3ccc4c5c(n(C)c4c3)CCNCC5)c(=O)c2)cn1 [Example 45, 1-(6-Methyl-1,2,3,4,5,6-hexahydroazepino[4,5-b]indol-8-yl)-4-((6-methylpyridin-3-yl)methoxy)pyridin-2(1H)-one dihydrochloride]  26 nM
27. Cn1c2c(c3ccc(N4CCN(CCc5ccccn5)CC4=O)cc31)CNCCC2 [Example 59, 1-(6-Methyl-1,2,3,4,5,6-hexahydroazepino[4,3-b]indol-8-yl)-4-(2-(pyridin-2-yl)ethyl)piperazin-2-one dihydrochloride]  44 nM
28. CC(=O)N1CCc2c(n(C)c3cc(-n4ccc(-c5ccc(C(F)(F)F)nc5)cc4=O)ccc23)CC1 [Example 46, 1-(3-Acetyl-6-methyl-1,2,3,4,5,6-hexahydroazepino[4,5-b]indol-8-yl)-4-(6-(trifluoromethyl)pyridin-3-yl)pyridin-2(1H)-one]  47 nM
29. Cn1c2c(c3ccc(-n4ccc(-c5ccc(C(F)(F)F)nc5)nc4=O)cc31)CCNCC2 [Example 58, 1-(6-Methyl-1,2,3,4,5,6-hexahydroazepino[4,5-b]indol-8-yl)-4-(6-(trifluoromethyl)pyridin-3-yl)pyrimidin-2(1H)-one hydrochloride]  163 nM
